{
  "source": "paper PMC10243098",
  "about": "(Journal of medicinal chemistry, 2023)",
  "key": {"[1]": {"target": "HAT1/Rbap46 enzyme complex (Homo sapiens, UniProt O14929)", "sequence (O14929 whole entry)": "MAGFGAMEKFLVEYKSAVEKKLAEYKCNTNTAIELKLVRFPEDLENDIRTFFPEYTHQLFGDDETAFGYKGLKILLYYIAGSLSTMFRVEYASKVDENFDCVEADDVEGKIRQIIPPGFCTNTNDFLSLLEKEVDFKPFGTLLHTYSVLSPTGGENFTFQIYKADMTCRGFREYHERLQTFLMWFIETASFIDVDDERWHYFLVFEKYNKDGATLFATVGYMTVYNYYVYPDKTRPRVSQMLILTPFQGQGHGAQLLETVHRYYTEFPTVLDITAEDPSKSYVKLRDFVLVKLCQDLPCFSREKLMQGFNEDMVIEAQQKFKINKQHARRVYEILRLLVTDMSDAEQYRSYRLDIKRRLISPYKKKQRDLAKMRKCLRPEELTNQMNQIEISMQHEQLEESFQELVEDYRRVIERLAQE", "sequence (Q16576 whole entry partner)": "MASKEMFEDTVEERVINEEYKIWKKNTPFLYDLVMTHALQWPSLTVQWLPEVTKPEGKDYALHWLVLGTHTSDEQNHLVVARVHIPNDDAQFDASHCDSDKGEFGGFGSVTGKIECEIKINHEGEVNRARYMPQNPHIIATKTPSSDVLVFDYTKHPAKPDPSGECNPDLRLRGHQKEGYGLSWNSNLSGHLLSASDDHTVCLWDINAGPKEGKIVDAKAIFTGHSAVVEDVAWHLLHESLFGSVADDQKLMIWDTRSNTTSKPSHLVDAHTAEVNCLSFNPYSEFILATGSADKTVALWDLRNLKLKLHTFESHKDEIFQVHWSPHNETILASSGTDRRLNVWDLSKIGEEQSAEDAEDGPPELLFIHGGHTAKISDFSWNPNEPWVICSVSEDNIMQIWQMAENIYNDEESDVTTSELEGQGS", "experiment": "HAT1 acetyl-click assay"}, "[2]": {"settings": "mouse, in vivo, ip"}, "MYST4/KAT6b": {"target": "MYST4/KAT6b (Homo sapiens, UniProt Q8WYB5)", "sequence (Q8WYB5 whole entry)": "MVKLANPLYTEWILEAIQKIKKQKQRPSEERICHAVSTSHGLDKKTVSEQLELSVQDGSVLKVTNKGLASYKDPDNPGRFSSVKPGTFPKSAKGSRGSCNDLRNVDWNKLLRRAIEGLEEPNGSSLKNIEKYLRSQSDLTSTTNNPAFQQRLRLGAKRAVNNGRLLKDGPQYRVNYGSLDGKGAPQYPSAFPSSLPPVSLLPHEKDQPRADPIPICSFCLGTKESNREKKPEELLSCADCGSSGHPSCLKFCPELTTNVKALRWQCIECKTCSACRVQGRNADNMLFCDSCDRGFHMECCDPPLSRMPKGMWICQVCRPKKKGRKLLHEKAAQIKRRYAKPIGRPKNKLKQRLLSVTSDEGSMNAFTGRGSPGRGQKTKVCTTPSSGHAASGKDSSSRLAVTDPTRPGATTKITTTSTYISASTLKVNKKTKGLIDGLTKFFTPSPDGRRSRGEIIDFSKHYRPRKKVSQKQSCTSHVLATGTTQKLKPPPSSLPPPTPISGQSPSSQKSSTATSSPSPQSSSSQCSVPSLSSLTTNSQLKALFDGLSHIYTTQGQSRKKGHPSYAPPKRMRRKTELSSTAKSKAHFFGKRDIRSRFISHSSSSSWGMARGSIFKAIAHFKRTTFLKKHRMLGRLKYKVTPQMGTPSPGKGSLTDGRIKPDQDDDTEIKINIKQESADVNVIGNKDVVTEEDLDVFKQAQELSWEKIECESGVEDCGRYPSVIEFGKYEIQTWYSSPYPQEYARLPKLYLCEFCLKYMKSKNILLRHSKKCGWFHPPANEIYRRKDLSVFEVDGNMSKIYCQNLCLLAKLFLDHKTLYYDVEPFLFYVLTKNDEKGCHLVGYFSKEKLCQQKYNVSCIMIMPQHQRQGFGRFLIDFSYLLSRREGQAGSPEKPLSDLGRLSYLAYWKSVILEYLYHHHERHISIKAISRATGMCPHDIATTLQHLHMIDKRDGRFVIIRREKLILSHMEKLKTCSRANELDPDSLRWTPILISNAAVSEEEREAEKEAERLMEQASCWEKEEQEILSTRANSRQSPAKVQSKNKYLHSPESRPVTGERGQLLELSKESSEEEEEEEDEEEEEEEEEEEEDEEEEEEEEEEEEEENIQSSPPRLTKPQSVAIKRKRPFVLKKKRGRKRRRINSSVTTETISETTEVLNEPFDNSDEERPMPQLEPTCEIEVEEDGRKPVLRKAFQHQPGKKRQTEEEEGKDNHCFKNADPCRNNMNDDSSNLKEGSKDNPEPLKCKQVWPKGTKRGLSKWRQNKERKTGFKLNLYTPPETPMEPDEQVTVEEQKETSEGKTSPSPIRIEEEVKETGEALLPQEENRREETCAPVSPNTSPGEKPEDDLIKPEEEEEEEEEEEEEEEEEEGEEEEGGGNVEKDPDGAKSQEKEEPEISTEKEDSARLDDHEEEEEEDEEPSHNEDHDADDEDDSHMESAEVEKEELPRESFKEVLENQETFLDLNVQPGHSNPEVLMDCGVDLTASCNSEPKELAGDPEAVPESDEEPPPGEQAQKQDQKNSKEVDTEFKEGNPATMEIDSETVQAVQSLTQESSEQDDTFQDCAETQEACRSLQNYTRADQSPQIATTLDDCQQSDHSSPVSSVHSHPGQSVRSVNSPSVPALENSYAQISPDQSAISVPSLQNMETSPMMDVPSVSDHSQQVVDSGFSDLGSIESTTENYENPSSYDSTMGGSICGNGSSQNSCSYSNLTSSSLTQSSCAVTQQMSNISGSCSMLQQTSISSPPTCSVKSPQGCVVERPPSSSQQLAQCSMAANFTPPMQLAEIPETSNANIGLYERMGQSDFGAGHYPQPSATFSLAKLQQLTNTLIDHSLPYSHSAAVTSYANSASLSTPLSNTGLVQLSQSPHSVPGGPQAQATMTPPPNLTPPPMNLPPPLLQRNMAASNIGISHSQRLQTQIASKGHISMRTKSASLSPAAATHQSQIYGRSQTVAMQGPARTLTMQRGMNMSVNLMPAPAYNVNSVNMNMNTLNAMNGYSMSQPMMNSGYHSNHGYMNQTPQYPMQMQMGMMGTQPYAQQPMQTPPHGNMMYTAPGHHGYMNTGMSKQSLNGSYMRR", "experiment": "Other acetyltransferase assay", "type": "biochemical", "settings": "up to 100 μM"}, "[3]": {"experiment": "Dose-finding tolerability, single i.p. injection", "settings": "mice"}, "PCAF": {"target": "PCAF (Homo sapiens, UniProt Q92831)", "sequence (Q92831 whole entry)": "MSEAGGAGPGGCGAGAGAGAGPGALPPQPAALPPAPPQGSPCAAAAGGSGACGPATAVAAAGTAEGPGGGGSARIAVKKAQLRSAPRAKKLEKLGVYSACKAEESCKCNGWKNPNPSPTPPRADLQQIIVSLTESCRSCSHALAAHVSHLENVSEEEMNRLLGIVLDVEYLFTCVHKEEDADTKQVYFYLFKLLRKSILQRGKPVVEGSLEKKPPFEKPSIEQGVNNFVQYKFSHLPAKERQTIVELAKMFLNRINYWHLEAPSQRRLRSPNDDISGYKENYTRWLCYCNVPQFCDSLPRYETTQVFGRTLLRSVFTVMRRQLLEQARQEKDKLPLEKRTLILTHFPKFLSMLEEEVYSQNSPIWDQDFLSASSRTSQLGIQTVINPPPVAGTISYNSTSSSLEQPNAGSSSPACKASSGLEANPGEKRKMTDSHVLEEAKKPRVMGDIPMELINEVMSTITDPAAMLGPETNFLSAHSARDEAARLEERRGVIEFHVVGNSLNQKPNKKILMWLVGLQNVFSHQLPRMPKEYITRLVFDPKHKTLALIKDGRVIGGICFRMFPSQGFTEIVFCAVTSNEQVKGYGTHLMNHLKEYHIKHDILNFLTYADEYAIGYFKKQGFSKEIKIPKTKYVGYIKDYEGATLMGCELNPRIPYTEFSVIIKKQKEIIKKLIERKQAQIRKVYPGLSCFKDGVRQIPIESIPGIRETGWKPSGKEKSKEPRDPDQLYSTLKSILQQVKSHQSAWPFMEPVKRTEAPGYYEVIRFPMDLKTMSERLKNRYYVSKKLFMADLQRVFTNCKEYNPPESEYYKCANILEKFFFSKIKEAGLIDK", "experiment": "Other acetyltransferase assay", "type": "biochemical", "settings": "up to 100 μM"}, "[4]": {"experiment": "Plasma pharmacokinetics after single i.p. injection", "settings": "female, CD1, mouse, intraperitoneal, 100 mg/kg"}, "GCN5": {"target": "GCN5 (Homo sapiens, UniProt Q92830)", "sequence (Q92830 whole entry)": "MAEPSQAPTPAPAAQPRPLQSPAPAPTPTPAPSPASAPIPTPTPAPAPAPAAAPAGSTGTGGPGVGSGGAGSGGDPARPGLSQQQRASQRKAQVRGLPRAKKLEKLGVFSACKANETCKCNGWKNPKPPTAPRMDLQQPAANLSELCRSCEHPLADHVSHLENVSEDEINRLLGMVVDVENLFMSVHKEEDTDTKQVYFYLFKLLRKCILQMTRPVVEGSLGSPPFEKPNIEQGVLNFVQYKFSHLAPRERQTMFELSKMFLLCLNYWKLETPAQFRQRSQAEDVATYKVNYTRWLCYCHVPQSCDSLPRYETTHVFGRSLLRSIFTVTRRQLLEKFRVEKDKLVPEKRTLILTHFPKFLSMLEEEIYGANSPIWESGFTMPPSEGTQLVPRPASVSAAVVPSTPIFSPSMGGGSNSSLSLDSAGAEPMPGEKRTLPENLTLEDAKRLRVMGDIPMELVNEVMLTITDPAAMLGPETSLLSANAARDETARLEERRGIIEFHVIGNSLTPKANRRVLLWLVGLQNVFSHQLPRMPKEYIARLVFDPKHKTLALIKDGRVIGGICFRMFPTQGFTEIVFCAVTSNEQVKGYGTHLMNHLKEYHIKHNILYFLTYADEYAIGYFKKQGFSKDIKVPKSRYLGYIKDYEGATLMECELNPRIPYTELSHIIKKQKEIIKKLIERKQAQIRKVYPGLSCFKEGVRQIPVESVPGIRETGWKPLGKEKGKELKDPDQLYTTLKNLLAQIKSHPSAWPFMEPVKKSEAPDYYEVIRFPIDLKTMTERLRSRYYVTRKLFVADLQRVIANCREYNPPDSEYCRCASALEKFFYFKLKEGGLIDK", "experiment": "Other acetyltransferase assay", "type": "biochemical", "settings": "up to 100 μM"}, "[5]": {"system": "H4 lysine 5 and 12 acetylation", "experiment": "Nascent histone H4 acetylation in hTert-HME1 cells", "type": "cell-based, human", "settings": "hTert-HME1, 12 hours"}, "KAT5": {"target": "KAT5 (Homo sapiens, UniProt Q92993)", "sequence (Q92993 whole entry)": "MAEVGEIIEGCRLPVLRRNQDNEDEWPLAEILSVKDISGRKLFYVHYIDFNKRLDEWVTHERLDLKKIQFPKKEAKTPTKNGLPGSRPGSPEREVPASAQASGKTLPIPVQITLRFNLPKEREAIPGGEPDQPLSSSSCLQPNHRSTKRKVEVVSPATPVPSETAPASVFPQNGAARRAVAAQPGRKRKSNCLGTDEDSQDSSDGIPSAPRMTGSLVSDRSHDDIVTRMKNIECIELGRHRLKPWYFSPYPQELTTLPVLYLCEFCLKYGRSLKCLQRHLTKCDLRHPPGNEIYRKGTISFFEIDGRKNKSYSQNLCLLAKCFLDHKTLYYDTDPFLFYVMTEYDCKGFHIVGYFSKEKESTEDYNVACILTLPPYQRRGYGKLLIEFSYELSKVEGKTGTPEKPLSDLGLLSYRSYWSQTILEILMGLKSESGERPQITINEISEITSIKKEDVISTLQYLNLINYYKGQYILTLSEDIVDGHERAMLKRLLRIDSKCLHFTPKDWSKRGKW", "experiment": "Other acetyltransferase assay", "type": "biochemical", "settings": "up to 100 μM"}, "H4K12Ac in A549 tumors": {"system": "H4K12Ac in A549 tumors", "experiment": "H4K12Ac immunofluorescence in A549 tumors after single i.p. dose", "settings": "tumors harvested 24 hours later"}, "A549 tumors": {"system": "A549 tumors", "experiment": "A549 xenograft tumor growth", "settings": "50 mg/kg and 100 mg/kg i.p. once every three days; p < 0.0001"}, "FAD-dependent oxidase": {"system": "FAD-dependent oxidase", "experiment": "FAD oxidase reaction", "type": "biochemical", "settings": "0.01 μM FAD"}, "HCC1806 cells": {"system": "HCC1806 cells", "experiment": "Cell growth inhibition", "type": "cell-based, human"}},
  "data": [
    {"compound": "3-(3-(7-Chloro-8-ethyl-2,4-dioxo-3,4-dihydrobenzo[g]pteridin-10(2H)-yl)propoxy)benzonitrile [Compound 37i]", "values": [
      {"measurement": "HAT1 inhibitory activity (in words)", "setting": "[1]", "value": "interfered with enzyme inhibition"}
    ]},
    {"compound": "CCc1cc2c(cc1Cl)nc1c(=O)[nH]c(=O)nc-1n2CCOCc1cccc(F)c1", "note": "[Compound 20b, 7-Chloro-8-ethyl-10-(2-((3-fluorobenzyl)oxy)ethyl)benzo[g]pteridine-2,4(3H,10H)-dione]", "values": [
      {"measurement": "HAT1 inhibitory activity (in words)", "setting": "[1]", "value": "interfered with enzyme inhibition"}
    ]},
    {"compound": "CCc1cc2c(cc1Cl)nc1c(=O)[nH]c(=O)nc-1n2CCOCc1ccc(C#N)cc1", "note": "[Compound 24g, 4-((2-(7-Chloro-8-ethyl-2,4-dioxo-3,4-dihydrobenzo[g]pteridin-10(2H)-yl)ethoxy)methyl)benzonitrile]", "values": [
      {"measurement": "HAT1 inhibitory activity (in words)", "setting": "[1]", "value": "interfered with enzyme inhibition"}
    ]},
    {"compound": "Cc1cc2nc3c(=O)[nH]c(=O)nc-3n(C[C@H](O)[C@H](O)[C@H](O)COP(=O)(O)OP(=O)(O)OC[C@H]3O[C@@H](n4cnc5c(N)ncnc54)[C@H](O)[C@@H]3O)c2cc1C", "note": "[FAD, flavin-adenine-dinucleotide, reference compound]", "values": [
      {"measurement": "HAT1 inhibitory activity (in words)", "setting": "[1]", "value": "no detectable inhibitory activity"}
    ]},
    {"compound": "Cc1cc2nc3c(=O)[nH]c(=O)nc-3n(C[C@H](O)[C@H](O)[C@H](O)COP(=O)(O)O)c2cc1C", "note": "[FMN, flavin-mononucleotide, reference compound]", "values": [
      {"measurement": "HAT1 inhibitory activity (in words)", "setting": "[1]", "value": "no detectable inhibitory activity"}
    ]},
    {"compound": "CCc1cc2c(cc1Cl)nc1c(=O)[nH]c(=O)nc-1n2CCOCC(C)C", "note": "[JG-2016, 7-Chloro-8-ethyl-10-(2-isobutoxyethyl)benzo[g]pteridine-2,4(3H,10H)-dione]", "values": [
      {"measurement": "tolerated dose with minimal toxicity", "setting": "[2]", "value": "up to 250 mg/kg"},
      {"measurement": "inhibitory activity towards MYST4/KAT6b", "setting": "MYST4/KAT6b", "value": "minimal or undetectable inhibitory activity"},
      {"measurement": "dose at which signs of distress were observed", "setting": "[3]", "value": 500, "unit": "mg/kg"},
      {"measurement": "inhibitory activity towards PCAF", "setting": "PCAF", "value": "minimal or undetectable inhibitory activity"},
      {"measurement": "concentration at 72 h", "setting": "[4]", "value": "2050 ± 233", "unit": "nM"},
      {"measurement": "inhibitory activity towards GCN5", "setting": "GCN5", "value": "minimal or undetectable inhibitory activity"},
      {"measurement": "H4 lysine 5 and 12 acetylation in cells", "setting": "[5]", "value": "dose-dependent inhibition"},
      {"measurement": "inhibitory activity towards KAT5", "setting": "KAT5", "value": "minimal or undetectable inhibitory activity"},
      {"measurement": "H4K12Ac signal in tumors", "setting": "H4K12Ac in A549 tumors", "value": "dose-dependent decrease"},
      {"measurement": "tumor growth versus vehicle", "setting": "A549 tumors", "value": "significantly impaired tumor growth"},
      {"measurement": "inhibition of FAD-dependent oxidase", "setting": "FAD-dependent oxidase", "value": "no significant inhibitory activity"}
    ]},
    {"compound": "CC(=O)SCCNC(=O)CCNC(=O)[C@H](O)C(C)(C)COP(=O)(O)OP(=O)(O)OC[C@H]1O[C@@H](n2cnc3c(N)ncnc32)[C@H](O)[C@@H]1OP(=O)(O)O", "note": "[acetyl-CoA]", "values": [
      {"measurement": "preference of enzyme for native cofactor versus 4-pentynoyl-CoA", "setting": "[1]", "value": "> 100", "unit": "fold"},
      {"measurement": "suppression of pentynoylated product", "setting": "[1]; 1 μM acetyl-CoA, 100 μM 4-pentynoyl-CoA", "value": "completely suppressed"}
    ]},
    {"compound": "Cc1cc2nc3[nH]c(=O)[nH]c(=O)c3nc2cc1C", "note": "[di-methyl-alloxazine, reference compound]", "values": [
      {"measurement": "HAT1 inhibitory activity (in words)", "setting": "[1]", "value": "no detectable inhibitory activity"}
    ]},
    {"compound": "Cc1cc2nc3c(=O)[nH]c(=O)nc-3n(C[C@H](O)[C@H](O)[C@H](O)CO)c2cc1N(C)C", "note": "[roseoflavin, reference compound]", "values": [
      {"measurement": "cell growth inhibitory activity (in words)", "setting": "HCC1806 cells", "value": "strong cell growth inhibitory properties"},
      {"measurement": "HAT1 inhibitory activity (in words)", "setting": "[1]", "value": "inactive"}
    ]}
  ]
}
